Measured values as given in US10131652B2, “Pyrimidinyloxy benzene derivatives as herbicides” (E. I. DU PONT DE NEMOURS AND COMPANY, priority 2014, dated 2018).

Columns and labels:
Assay type in all cases: in vivo
kochia (Kochia scoparia) [1] = assay: Test D postemergence plant response; settings: for Plant response rating (scale 0 to 100), Kochia: 16 g ai/ha; for Kochia plant response rating: 31 g ai/ha, scale 0 to 100 (0 no effect, 100 complete control); for Plant response rating, Kochia: scale 0 to 100, 0 no effect, 100 complete control
How it was run: (§1)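 Scores reflect visual plant response relative to untreated controls on a 0 to 100 scale, where 100 means complete control. Treatment was postemergence on 2–18 cm plants in peat-based potting medium, with greenhouse assessment 13–15 days later.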

wild oat (Avena fatua) = assay: Test D postemergence plant response; settings: for Plant response rating (scale 0 to 100), Oat, Wild: 16 g ai/ha; for Plant response rating, Oat, Wild: 125 g ai/ha
How it was run: as §1

[2] = system: chickweed (common chickweed, Stellaria media); assay: Test D postemergence plant response; settings: for Plant response rating (scale 0 to 100), Chickweed: 16 g ai/ha; for Chickweed plant response rating: 31 g ai/ha, scale 0 to 100 (0 no effect, 100 complete control); for Plant response rating, Chickweed: scale 0 to 100, 0 no effect, 100 complete control
How it was run: as §1

kochia (Kochia scoparia) [3] = assay: Test B pre-/postemergence plant response
How it was run: (§2)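 Ratings reflect visual injury versus untreated controls, from 0 for no effect to 100 for complete control, assessed roughly 10 days after treatment. Formulation: non-phytotoxic solvent mix with surfactant; pre- and postemergence sprays on plants grown in loam soil and sand.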

[4] = system: pigweed (Amaranthus retroflexus); assay: Test B pre-/postemergence plant response
How it was run: as §2

corn (Zea mays) = assay: Test B pre-/postemergence plant response
How it was run: as §2

[5] = system: Italian ryegrass (Lolium multiflorum); assay: Test B pre-/postemergence plant response
How it was run: as §2

[6] = system: ragweed (common ragweed, Ambrosia elatior); assay: Test B pre-/postemergence plant response
How it was run: as §2

[7] = system: giant foxtail (Setaria faberii); assay: Test B pre-/postemergence plant response
How it was run: as §2

[8] = system: wheat (Triticum aestivum); assay: Test B pre-/postemergence plant response
How it was run: as §2

[9] = system: barnyardgrass (Echinochloa crus-galli); assay: Test B pre-/postemergence plant response
How it was run: as §2

[10] = system: blackgrass (Alopecurus myosuroides); assay: Test B postemergence plant response
How it was run: (§3)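 Seedlings in a loam soil and sand mix received a postemergence application of the formulated chemicals at the one- to two-leaf stage (2–10 cm tall). They were kept in a greenhouse for roughly 10 days, then scored for injury relative to untreated plants, 0 meaning no effect and 100 complete control.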

[11] = system: galium (catchweed bedstraw, Galium aparine); assay: Test B postemergence plant response
How it was run: as §3

[12] = system: small-flower umbrella sedge (Cyperus difformis); assay: Test C flooded paddy test plant response; settings: Flood, 250 g ai/ha; scale of 0 to 100 where 0 is no effect and 100 is complete control; 13 to 15 days
How it was run: (§4)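 Plants grown to the 2-leaf stage; pots flooded to 3 cm above soil, test compounds applied directly to paddy water, depth maintained throughout. Greenhouse for 13 to 15 days, then visual rating versus controls on a 0–100 scale (0 no effect, 100 complete control).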

[13] = system: ducksalad (Heteranthera limosa); assay: Test C flooded paddy test plant response; settings: Flood, 250 g ai/ha; scale of 0 to 100 where 0 is no effect and 100 is complete control; 13 to 15 days
How it was run: as §4

rice (Oryza sativa) = assay: Test C flooded paddy test plant response; settings: Flood, 250 g ai/ha; scale of 0 to 100 where 0 is no effect and 100 is complete control; 13 to 15 days
How it was run: as §4

[14] = system: barnyardgrass (Echinochloa crus-galli); assay: Test C flooded paddy test plant response; settings: Flood, 250 g ai/ha; scale of 0 to 100 where 0 is no effect and 100 is complete control; 13 to 15 days
How it was run: as §4

[15] = 31 g ai/ha, scale 0 to 100 (0 no effect, 100 complete control)
[16] = 62 g ai/ha, scale 0 to 100, 0 no effect, 100 complete control
[17] = scale 0 to 100, 0 no effect, 100 complete control
[18] = 125 g ai/ha, postemergence, 0 to 100 scale, 0 no effect, 100 complete control
[19] = Postemergence, 500 g ai/ha, 0 to 100 scale (0 no effect, 100 complete control)
[20] = Preemergence, 125 g ai/ha, 0 to 100 scale (0 no effect, 100 complete control)
[21] = Preemergence, 500 g ai/ha, 0 to 100 scale where 0 is no effect and 100 is complete control
[22] = Postemergence, 1000 g ai/ha, 0 to 100 scale (0 no effect, 100 complete control)
[23] = Preemergence, 1000 g ai/ha, 0 to 100 scale (0 no effect, 100 complete control)

Clc1cnc(Oc2ccccc2-c2ccon2)nc1 [Compound 185]
Plant response rating (scale 0 to 100), Kochia (kochia (Kochia scoparia) [1]): 0
Kochia plant response rating (kochia (Kochia scoparia) [1]): 0
Plant response rating, Kochia (kochia (Kochia scoparia) [1]; 62 g ai/ha): 5
Plant response rating, Kochia (kochia (Kochia scoparia) [1]; 125 g ai/ha): 30
Plant response rating (scale 0 to 100), Oat, Wild (wild oat (Avena fatua)): 0
Oat, Wild plant response rating (wild oat (Avena fatua); [15]): 0
Oat, Wild plant response rating (wild oat (Avena fatua); [16]): 0
Plant response rating, Oat, Wild (wild oat (Avena fatua); [17]): 5
Plant response rating (scale 0 to 100), Chickweed [2]: 0
Chickweed plant response rating [2]: 0
Plant response rating, Chickweed ([2]; 62 g ai/ha): 5
Plant response rating, Chickweed ([2]; 125 g ai/ha): 5
Plant response rating, Kochia (kochia (Kochia scoparia) [3]; [18]): 90
Plant response rating, Kochia (kochia (Kochia scoparia) [3]; [19]): 100
Kochia plant response rating (kochia (Kochia scoparia) [3]; [20]): 40
Plant response rating, Kochia (kochia (Kochia scoparia) [3]; [21]): 100
Plant response rating, Pigweed [4, 18]: 90
Plant response rating, Pigweed [4, 19]: 100
Pigweed plant response rating [4, 20]: 90
Plant response rating, Pigweed [4, 21]: 100
Plant response rating, Corn (corn (Zea mays); [18]): 0
Plant response rating, Corn (corn (Zea mays); [19]): 10
Plant response rating, Ryegrass, Italian [5, 18]: 0
Plant response rating, Ryegrass, Italian [5, 19]: 0
Ryegrass, Italian plant response rating [5, 20]: 0
Plant response rating, Ryegrass, Italian [5, 21]: 0
Plant response rating, Ragweed [6, 18]: 70
Plant response rating, Ragweed [6, 19]: 100
Ragweed plant response rating [6, 20]: 10
Plant response rating, Ragweed [6, 21]: 90
Plant response rating, Foxtail, Giant [7, 18]: 10
Plant response rating, Foxtail, Giant [7, 19]: 70
Foxtail, Giant plant response rating [7, 20]: 30
Plant response rating, Foxtail, Giant [7, 21]: 90
Plant response rating, Wheat [8, 18]: 0
Plant response rating, Wheat [8, 19]: 0
Plant response rating, Barnyardgrass [9, 18]: 10
Plant response rating, Barnyardgrass [9, 19]: 40
Barnyardgrass plant response rating [9, 20]: 20
Plant response rating, Barnyardgrass [9, 21]: 70
Plant response rating, Blackgrass [10, 18]: 0
Plant response rating, Blackgrass [10, 19]: 50
Plant response rating, Galium [11, 18]: 40
Plant response rating, Galium [11, 19]: 70
Sedge, Umbrella plant response rating [12]: 0
Ducksalad plant response rating [13]: 0
Rice plant response rating (rice (Oryza sativa)): 0
Barnyardgrass plant response rating [14]: 0

FCc1cc(-c2c(Br)cccc2Oc2ncc(Cl)cn2)no1 [Compound 191]
Plant response rating (scale 0 to 100), Kochia (kochia (Kochia scoparia) [1]): 50
Kochia plant response rating (kochia (Kochia scoparia) [1]): 80
Plant response rating, Kochia (kochia (Kochia scoparia) [1]; 62 g ai/ha): 85
Plant response rating, Kochia (kochia (Kochia scoparia) [1]; 125 g ai/ha): 90
Plant response rating (scale 0 to 100), Oat, Wild (wild oat (Avena fatua)): 0
Oat, Wild plant response rating (wild oat (Avena fatua); [15]): 0
Oat, Wild plant response rating (wild oat (Avena fatua); [16]): 5
Plant response rating, Oat, Wild (wild oat (Avena fatua); [17]): 5
Plant response rating (scale 0 to 100), Chickweed [2]: 50
Chickweed plant response rating [2]: 55
Plant response rating, Chickweed ([2]; 62 g ai/ha): 70
Plant response rating, Chickweed ([2]; 125 g ai/ha): 90
Plant response rating, Kochia (kochia (Kochia scoparia) [3]; [22]): 100
Plant response rating, Kochia (kochia (Kochia scoparia) [3]; [23]): 100
Plant response rating, Pigweed [4, 22]: 100
Plant response rating, Pigweed [4, 23]: 100
Plant response rating, Corn (corn (Zea mays); [22]): 60
Plant response rating, Ryegrass, Italian [5, 22]: 100
Plant response rating, Ryegrass, Italian [5, 23]: 90
Plant response rating, Ragweed [6, 22]: 90
Plant response rating, Ragweed [6, 23]: 90
Plant response rating, Foxtail, Giant [7, 22]: 100
Plant response rating, Foxtail, Giant [7, 23]: 100
Plant response rating, Wheat [8, 22]: 30
Plant response rating, Barnyardgrass [9, 22]: 100
Plant response rating, Barnyardgrass [9, 23]: 100
Plant response rating, Blackgrass [10, 22]: 100
Plant response rating, Galium [11, 22]: 100
Sedge, Umbrella plant response rating [12]: 85
Ducksalad plant response rating [13]: 80
Rice plant response rating (rice (Oryza sativa)): 0
Barnyardgrass plant response rating [14]: 20
